Source: patent publication US20100286038A1, “FORMULATION CONTAINING CYCLIN-DEPENDENT KINASE INHIBITING COMPOUND AND METHOD OF TREATING TUMORS USING THE SAME” (priority 2007, published 2010)
Where two headings read alike, the source gives them in different places.

Key:
[1] = system: tumor cell lines including the standard NCI panel; settings: inhibition of CDK2/CDK1 in tumor cells
Fes = target: T1, Fes (Homo sapiens, UniProt P07332); test: Upstate kinase Profiler counter-screening; format: biochemical
T1 construct: purchased Upstate

xenograft models = settings: plasma trough concentrations of less than 25 nM for less than two hours
[2] = system: various human tumor cell lines; settings: for Caspase Activation (number of sensitive cell lines out of total tested/single exposure): two hour exposure to less than 0.1 micromolar
Procedure: (§1) The level of activation of apoptosis was also assessed by determining the levels of activated caspase in each cell line. […] The cells were evaluated fluorometrically for levels of activated caspase six hours post washout. Samples of each cell line were also subjected to SDS-PAGE and subsequently immunoblotted for p85 PARP caspase cleavage product.

CaMKII = format: biochemical
tumor = settings: various dosages, 2 hour or 8 hour IV infusion, 21-day dosing cycle
YES = target: T2, YES (Homo sapiens, UniProt P07947); test: Upstate kinase Profiler counter-screening; format: biochemical; settings: at 1 μM
T2 construct: purchased Upstate

PKCα = target: T3, PKCα (Homo sapiens, UniProt P17252); test: Upstate kinase Profiler counter-screening; format: biochemical
T3 construct: purchased Upstate

[3] = 40 mg/kg once per day for five days; blood on days 1 and 7 following the last dose
Procedure: The formulation was administered to BALB/c mice at a dosage level of 40 mg/kg once per day for five days. Blood samples were obtained on days 1 and 7 following the last dose and analyzed on an Advia 120 hematology analyzer immediately after diluting 1:5 in PBS. A full differential blood count was performed, including red blood cell analysis (including reticulocyte, variant count, and hemoglobin analyses), white blood cell analysis (including differential lineage counts and peroxidase staining) and a thrombopoiesis analysis.

[4] = system: various human tumor cell lines; settings: read-out: Mean In-Cell IC50, 24 hours exposure
Procedure: as §1

A2780 cells = settings: 2 hours exposure to 0.1 mM
Procedure: Following washout, lysates were prepared from the cells to assess the duration of the effects of exposure.

T1 sequence (P07332 whole entry, species assumed): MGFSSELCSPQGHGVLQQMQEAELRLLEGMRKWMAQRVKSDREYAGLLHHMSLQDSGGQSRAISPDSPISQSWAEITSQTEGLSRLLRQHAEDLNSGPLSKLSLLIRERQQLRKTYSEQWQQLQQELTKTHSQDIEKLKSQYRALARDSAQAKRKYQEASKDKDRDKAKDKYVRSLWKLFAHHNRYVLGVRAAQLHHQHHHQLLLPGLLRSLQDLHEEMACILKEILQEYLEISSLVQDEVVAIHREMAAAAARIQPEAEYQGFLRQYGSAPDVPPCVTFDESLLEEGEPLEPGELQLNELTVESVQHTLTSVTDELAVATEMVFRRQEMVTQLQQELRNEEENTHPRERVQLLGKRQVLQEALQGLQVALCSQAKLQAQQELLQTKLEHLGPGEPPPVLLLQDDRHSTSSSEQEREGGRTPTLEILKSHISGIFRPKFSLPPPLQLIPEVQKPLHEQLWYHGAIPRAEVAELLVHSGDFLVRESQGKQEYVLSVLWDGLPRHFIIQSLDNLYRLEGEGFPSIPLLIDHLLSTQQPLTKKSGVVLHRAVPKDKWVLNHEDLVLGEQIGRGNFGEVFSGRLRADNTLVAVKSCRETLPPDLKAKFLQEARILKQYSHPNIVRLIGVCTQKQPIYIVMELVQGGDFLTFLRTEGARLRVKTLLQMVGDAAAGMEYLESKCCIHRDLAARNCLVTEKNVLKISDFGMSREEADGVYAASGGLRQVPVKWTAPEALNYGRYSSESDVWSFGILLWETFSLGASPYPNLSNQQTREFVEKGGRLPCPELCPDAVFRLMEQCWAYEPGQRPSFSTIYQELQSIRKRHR
T2 sequence (P07947 whole entry, species assumed): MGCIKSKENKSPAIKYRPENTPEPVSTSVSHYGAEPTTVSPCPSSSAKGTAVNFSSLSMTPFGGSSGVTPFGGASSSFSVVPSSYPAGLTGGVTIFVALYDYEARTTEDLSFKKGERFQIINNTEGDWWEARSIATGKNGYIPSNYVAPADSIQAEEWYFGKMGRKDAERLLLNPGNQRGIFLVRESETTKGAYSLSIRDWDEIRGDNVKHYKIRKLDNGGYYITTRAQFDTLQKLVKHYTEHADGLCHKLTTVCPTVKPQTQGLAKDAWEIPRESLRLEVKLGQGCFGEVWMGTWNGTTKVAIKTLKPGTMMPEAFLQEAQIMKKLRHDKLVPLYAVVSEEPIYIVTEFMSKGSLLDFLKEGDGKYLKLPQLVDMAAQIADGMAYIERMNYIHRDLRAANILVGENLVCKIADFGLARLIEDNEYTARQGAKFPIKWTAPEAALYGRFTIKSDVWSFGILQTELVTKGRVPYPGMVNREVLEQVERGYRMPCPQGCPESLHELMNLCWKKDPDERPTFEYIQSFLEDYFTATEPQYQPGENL

In the case of `CCc1cnn2c(NCc3ccc[n+]([O-])c3)cc(N3CCCC[C@H]3CCO)nc12` [Formula II], the “number of tumor cell lines with cell cycle arrest and apoptosis” value [1] is reported as “more than 100 tumor cell lines”, the “% remaining activity” value (Fes; at 1 μM) is reported as 87% and the “% remaining activity” value (Fes; at 10 μM) is reported as 91%. The “effect on xenograft tumors” value (xenograft models) was “tumor growth inhibition or regression”, the “Caspase Activation (number of sensitive cell lines out of total tested/single exposure)” value ([2]; Bladder) was 1 of 2 and the “Caspase Activation (number of sensitive cell lines out of total tested/single exposure)” value ([2]; Breast) was 6 of 7. For the same molecule, the “Caspase Activation (number of sensitive cell lines out of total tested/single exposure)” value ([2]; Colon) was 5 of 9, the “Caspase Activation (number of sensitive cell lines out of total tested/single exposure)” value ([2]; Leukemia) was 5 of 6 and the “Caspase Activation (number of sensitive cell lines out of total tested/single exposure)” value ([2]; Liver) was 2 of 2. For the same molecule, the “Caspase Activation (number of sensitive cell lines out of total tested/single exposure)” value ([2]; Lymphoma (NHL)) was 8 of 8, the “Caspase Activation (number of sensitive cell lines out of total tested/single exposure)” value ([2]; Mantle Cell lymphoma) was 3 of 4 and the “Caspase Activation (number of sensitive cell lines out of total tested/single exposure)” value ([2]; Melanoma) was 9 of 9. For the same molecule, the “Caspase Activation (number of sensitive cell lines out of total tested/single exposure)” value ([2]; NSCLC) was 8 of 9, the “Caspase Activation (number of sensitive cell lines out of total tested/single exposure)” value ([2]; Ovarian) was 5 of 7 and the “Caspase Activation (number of sensitive cell lines out of total tested/single exposure)” value ([2]; Pancreatic) was 11 of 15. For the same molecule, the “Caspase Activation (number of sensitive cell lines out of total tested/single exposure)” value ([2]; Prostate) was 4 of 5, the “Caspase Activation (number of sensitive cell lines out of total tested/single exposure)” value ([2]; SCLC) was 2 of 6 and the “share of cell lines tested with caspase activation and apoptosis detected” value ([2]; single exposure) was “over 85%”. The “% remaining activity” value (CaMKII; at 1 μM) was 102%, the “% remaining activity” value (CaMKII; at 10 μM) was 91% and the “responses by RECIST criteria in the population” value (tumor) was “no complete or partial responses”. The “% remaining activity” value (YES) was 92%, the “% remaining activity” value (PKCα; at 1 μM) was 96% and the “% remaining activity” value (PKCα; at 10 μM) was 94%. For the same molecule, the “effect on platelets or red blood cells” value [3] was “No effect”, the IC50 ([4]; Bladder) was 10 nM and the IC50 ([4]; Breast) was 8 nM. It also gave an IC50 ([4]; Colon) of 17 nM, an IC50 ([4]; Leukemia) of 6 nM and an IC50 ([4]; Liver) of 8 nM. The IC50 ([4]; Lymphoma (NHL)) was 7 nM, the IC50 ([4]; Mantle Cell lymphoma) was 7 nM and the IC50 ([4]; Melanoma) was 9 nM. It also gave an IC50 ([4]; NSCLC) of 14 nM, an IC50 ([4]; Ovarian) of 14 nM and an IC50 ([4]; Pancreatic) of 15 nM. For the same molecule, the IC50 ([4]; Prostate) was 12 nM, the IC50 ([4]; SCLC) was 6 nM and the “period of suppression of RB phosphorylation and caspase activation after the washout” value (A2780 cells) was “exceeding 6 hours”.
